{
  "source": "patent US12661348B2",
  "about": "“Systemic formulation of a pyridinone derivate for TG2-related diseases” (Dr. Falk Pharma GmbH, priority 2020, dated 2026)",
  "key": {"[1]": {"test_system": "STAM-model in the C57BL/6-mouse", "experiment": "Stelic animal model (STAM-model) for non-alcoholic steatohepatitis", "type": "in vivo", "method": "The anti-fibrotic effect of compound of formula (I) in the liver was investigated in a STAM-model for non-alcoholic steatohepatitis. This model bases on the induction of a chronical fibrotic inflammation of the liver by means of the combination of a chemical noxin (Streptozotocin) and a fat-containing diet in the C57BL/6-mouse. The pathology is similar to the described NASH in human.\nGroups of 8 STAM-mice were treated directly over a time period of two weeks with three different dosages of said compound: 100 mg/kg body weight, 300 mg/kg body weight, and 1000 mg/kg body weight. The daily dosage was administered orally as a suspension in two parts at intervals of 8 hours. In a control group, the STAM-mice were treated in same way but merely with the vehicle methyl cellulose. After the end of the treatment, a measurement of the biochemical parameter in the Plasma and after dissection of the animals a histopathological investigation for the liver, the determination of the fat content of the liver as well as the determination of the expression of inflammation and fibrosis marker was performed."}, "[2]": {"experiment": "Pharmacokinetic in healthy volunteers, multiple dosing over 7 days", "type": "in vivo, human", "conditions": "up to 100 mg", "method": "The pharmacokinetic of (S,E)-methyl-7-(1-(2-(2-ethylbutylamino)-2-oxoethyl)-2-oxo-1,2-dihydro-pyridin-3-ylamino)-6-(1-methyl-1H-imidazole-5-carboxamido)-7-oxohept-2-enoate (compound of formula (I)) was investigated in healthy volunteers. Cohorts of 18 subjects each were treated with a daily dose of 10, 20, 50 and 100 mg compound of formula (I), respectively over a time period of 7 days. The determination of said compound in blood plasma was performed by means of a previously validated HPLC-MS/MS method."}, "[3]": {"experiment": "Saturation solubility, pH-range 1 to 6.8, HPLC/UV", "type": "physicochemical", "conditions": "pH=6.8 (small intestine) compared with pH~1"}, "[4]": {"test_system": "adult patients with Celiac Disease (CeD)", "experiment": "6-week treatment of Celiac Disease patients under gluten challenge: ALT, AST, ALP levels", "type": "in vivo, human", "conditions": "for ALP, Change from baseline / ALT, Change from baseline / AST, Change from baseline / ALP, Difference versus placebo / ALT, Difference versus placebo / AST, Difference versus placebo: baseline to week 6; for Mean alanine aminotransferase (ALT) level, Baseline / Mean alkaline phosphatase (ALP) level, Baseline / Mean aspartate aminotransferase (AST) level, Baseline / Mean ALP level, Week 6 / Mean ALT level, Week 6 / Mean AST level, Week 6: safety population", "method": "(§1) The efficacy and safety of a 6-week treatment with the compound of formula (I) in the hard gelatine capsule formulation described in example 2 was investigated in 160 adult patients with Celiac Disease (CeD). Patients, who were in clinical and histological remission at start of the study were challenged with 3 grams daily gluten intake and randomized to receive placebo or one of 3 doses of the compound of formula (I), i.e. 10 mg, 50 mg or 100 mg. Each morning after at least 6 hours of fasting, patients took the study drug orally, followed by one biscuit containing 3 g of gluten 30 minutes later, before breakfast. Throughout the 6-week study, patients were required to continue their strict gluten free diet.\nas §1, with “described in the example 2” for “described in example 2”, “gluten free diet (see FIG. 12).” for “gluten free diet.”"}, "[5]": {"test_system": "fibrotic liver or kidney diseases in human", "experiment": "Correlation of the anti-fibrotic effect in the animal model with the human pharmacokinetic", "type": "in vivo", "conditions": "from fibrotic area versus Cmax or AUC", "method": "A comparison of the systemic exposure (Cmax, AUC) of (5,E)-methyl-7-(1-(2-(2-ethylbutylamino)-2-oxoethyl)-2-oxo-1,2-dihydro-pyridin-3-ylamino)-6-(1-methyl-1H-imidazole-5-carboxamido)-7-oxohept-2-enoate in dosage effective in the animal experiments with the systemic exposition which is achieved in human allows an estimation of the potential effective dose range.\nIn addition, the Cmax or AUC being achieved in human by the dosage of 10, 20, and 50 mg compound of formula (I) is shown."}, "[6]": {"experiment": "Pharmacokinetic in the C57BL/6-mouse", "type": "in vivo", "conditions": "oral suspension", "method": "The study serves to describe the pharmacokinetics of compound of formula (I) in the C57BL/6-mouse. The dosage was analogous to the dosage in the STAM-model (example 3) or in the UUO-model (example 2) in order to ensure the estimation of the systemic exposition in these models and to correlate the pharmacokinetic data with the efficacy data.\nGroups of 12 C57BL/6-mice were treated with three different dosages of compound of formula (I) over a time period of 7 days: 100 mg/kg body weight, 300 mg/kg body weight, and 1000 mg/kg body weight. The daily dosage was administered orally as a suspension in two parts at intervals of 8 hours. On day 7 of treatment three different blood samples per animal were collected. The time points in the group were distributed in such a way that the 24 h-profile was covered with in total 12 different time points (3 animals per time point).\nThe determination of compound of formula (I) in the blood plasma was performed by means of a previously validated HLPC-MS/MS method."}},
  "data": [
    {"smiles": "CCC(CC)CNC(=O)Cn1cccc(NC(=O)[C@H](CC/C=C/C(=O)OC)NC(=O)c2cncn2C)c1=O", "note": "[compound of formula (I), (S,E)-methyl-7-(1-(2-(2-ethylbutylamino)-2-oxoethyl)-2-oxo-1,2-dihydro-pyridin-3-ylamino)-6-(1-methyl-1H-imidazole-5-carboxamido)-7-oxohept-2-enoate]", "values": [
      {"measurement": "liver histology", "setting": "[1]; 100, 300, 1000 mg/kg body weight daily, oral suspension in two parts, two weeks", "value": "significant, dosage dependent improvement"},
      {"measurement": "fibrotic area in the liver", "setting": "[1]; 100, 300, 1000 mg/kg, significant in the middle and high dosage group", "value": "marked, dosage dependent reduction"},
      {"measurement": "liver inflammation", "setting": "[1]; STAM mice", "value": "dose-dependent and significant reduction"},
      {"measurement": "fat content in the liver", "setting": "[1]; STAM-mice, oral, two weeks", "value": "no influence"},
      {"measurement": "reduction of the fibrosis compared with positive control Telmisartan", "setting": "[1]; high dosage group, comparison with historical data", "value": "lay in the area of Telmisartan"},
      {"measurement": "NAFLD Activity Score (NAS)", "setting": "[1]; middle and high dosage group (300, 1000 mg/kg), mainly reduction of inflammation and ballooning", "value": "reduced in the middle and high dosage group"},
      {"measurement": "systemic exposure in human versus dose", "setting": "[2]", "value": "increases linearly"},
      {"measurement": "saturation solubility", "setting": "[3]", "value": "much lower"},
      {"measurement": "ALP, Change from baseline", "setting": "[4]; 10 mg (N = 41)", "value": "−1.0", "unit": "U/L"},
      {"measurement": "ALT, Change from baseline", "setting": "[4]; 10 mg (N = 41)", "value": "−0.5", "unit": "U/L"},
      {"measurement": "AST, Change from baseline", "setting": "[4]; 10 mg (N = 41)", "value": 0, "unit": "U/L"},
      {"measurement": "Mean alanine aminotransferase (ALT) level, Baseline", "setting": "[4]; 10 mg (N = 41)", "value": 20.5, "unit": "U/L"},
      {"measurement": "Mean alkaline phosphatase (ALP) level, Baseline", "setting": "[4]; 10 mg (N = 41)", "value": 60.0, "unit": "U/L"},
      {"measurement": "Mean aspartate aminotransferase (AST) level, Baseline", "setting": "[4]; 10 mg (N = 41)", "value": 22.5, "unit": "U/L"},
      {"measurement": "Mean ALP level, Week 6", "setting": "[4]; 10 mg (N = 41)", "value": 59.3, "unit": "U/L"},
      {"measurement": "Mean ALT level, Week 6", "setting": "[4]; 10 mg (N = 41)", "value": 20.0, "unit": "U/L"},
      {"measurement": "Mean AST level, Week 6", "setting": "[4]; 10 mg (N = 41)", "value": 22.5, "unit": "U/L"},
      {"measurement": "Mean ALT level, Week 10 (Follow-up)", "setting": "[4]; 10 mg (N = 41)", "value": 19.7, "unit": "U/L"},
      {"measurement": "Mean AST level, Week 10 (Follow-up)", "setting": "[4]; 10 mg (N = 41)", "value": 20.6, "unit": "U/L"},
      {"measurement": "ALP, Difference versus placebo", "setting": "[4]; 10 mg versus placebo", "value": "−2.6", "unit": "U/L"},
      {"measurement": "ALT, Difference versus placebo", "setting": "[4]; 10 mg versus placebo, P value 0.0019", "value": "−4.4", "unit": "U/L"},
      {"measurement": "AST, Difference versus placebo", "setting": "[4]; 10 mg versus placebo, P value 0.0448", "value": "−3.2", "unit": "U/L"},
      {"measurement": "ALP, Change from baseline", "setting": "[4]; 50 mg (N = 41)", "value": "−0.5", "unit": "U/L"},
      {"measurement": "ALT, Change from baseline", "setting": "[4]; 50 mg (N = 41)", "value": 0.8, "unit": "U/L"},
      {"measurement": "AST, Change from baseline", "setting": "[4]; 50 mg (N = 41)", "value": 1.0, "unit": "U/L"},
      {"measurement": "Mean alanine aminotransferase (ALT) level, Baseline", "setting": "[4]; 50 mg (N = 41)", "value": 21.4, "unit": "U/L"},
      {"measurement": "Mean alkaline phosphatase (ALP) level, Baseline", "setting": "[4]; 50 mg (N = 41)", "value": 57.8, "unit": "U/L"},
      {"measurement": "Mean aspartate aminotransferase (AST) level, Baseline", "setting": "[4]; 50 mg (N = 41)", "value": 22.6, "unit": "U/L"},
      {"measurement": "Mean ALP level, Week 6", "setting": "[4]; 50 mg (N = 41)", "value": 57.3, "unit": "U/L"},
      {"measurement": "Mean ALT level, Week 6", "setting": "[4]; 50 mg (N = 41)", "value": 22.2, "unit": "U/L"},
      {"measurement": "Mean AST level, Week 6", "setting": "[4]; 50 mg (N = 41)", "value": 23.6, "unit": "U/L"},
      {"measurement": "Mean ALT level, Week 10 (Follow-up)", "setting": "[4]; 50 mg (N = 41)", "value": 21.7, "unit": "U/L"},
      {"measurement": "Mean AST level, Week 10 (Follow-up)", "setting": "[4]; 50 mg (N = 41)", "value": 21.9, "unit": "U/L"},
      {"measurement": "ALP, Difference versus placebo", "setting": "[4]; 50 mg versus placebo", "value": "−2.8", "unit": "U/L"},
      {"measurement": "ALT, Difference versus placebo", "setting": "[4]; 50 mg versus placebo, P value 0.0069", "value": "−3.8", "unit": "U/L"},
      {"measurement": "AST, Difference versus placebo", "setting": "[4]; 50 mg versus placebo, P value 0.1423", "value": "−2.2", "unit": "U/L"},
      {"measurement": "ALP, Change from baseline", "setting": "[4]; 100 mg (N = 40)", "value": "−0.5", "unit": "U/L"},
      {"measurement": "ALT, Change from baseline", "setting": "[4]; 100 mg (N = 40)", "value": "−2.6", "unit": "U/L"},
      {"measurement": "AST, Change from baseline", "setting": "[4]; 100 mg (N = 40)", "value": "−0.4", "unit": "U/L"},
      {"measurement": "Mean alanine aminotransferase (ALT) level, Baseline", "setting": "[4]; 100 mg (N = 40)", "value": 26.3, "unit": "U/L"},
      {"measurement": "Mean alkaline phosphatase (ALP) level, Baseline", "setting": "[4]; 100 mg (N = 40)", "value": 62.7, "unit": "U/L"},
      {"measurement": "Mean aspartate aminotransferase (AST) level, Baseline", "setting": "[4]; 100 mg (N = 40)", "value": 26.8, "unit": "U/L"},
      {"measurement": "Mean ALP level, Week 6", "setting": "[4]; 100 mg (N = 40)", "value": 62.3, "unit": "U/L"},
      {"measurement": "Mean ALT level, Week 6", "setting": "[4]; 100 mg (N = 40)", "value": 23.7, "unit": "U/L"},
      {"measurement": "Mean AST level, Week 6", "setting": "[4]; 100 mg (N = 40)", "value": 26.5, "unit": "U/L"},
      {"measurement": "Mean ALT level, Week 10 (Follow-up)", "setting": "[4]; 100 mg (N = 40)", "value": 23.9, "unit": "U/L"},
      {"measurement": "Mean AST level, Week 10 (Follow-up)", "setting": "[4]; 100 mg (N = 40)", "value": 24.3, "unit": "U/L"},
      {"measurement": "ALP, Difference versus placebo", "setting": "[4]; 100 mg versus placebo", "value": "−2.8", "unit": "U/L"},
      {"measurement": "ALT, Difference versus placebo", "setting": "[4]; 100 mg versus placebo, P value 0.0022", "value": "−4.3", "unit": "U/L"},
      {"measurement": "AST, Difference versus placebo", "setting": "[4]; 100 mg versus placebo, P value 0.8551", "value": 0.3, "unit": "U/L"},
      {"measurement": "elevation of alanine aminotransferase (ALT) from baseline to week 6", "setting": "[4]; 10, 50, 100 mg groups, gluten challenge, elevation seen in placebo group", "value": "not observed"},
      {"measurement": "difference between each drug group and placebo in ALT", "setting": "[4]; P<0.01 for all comparisons", "value": "statistically significant"},
      {"measurement": "levels of AST, ALT, total protein", "setting": "[4]; oral, doses of 10, 50 and 100 mg in human", "value": "significantly reduced"},
      {"measurement": "human dosage at which the anti-fibrotic effect shown in the animal model can be achieved", "setting": "[5]", "value": 20, "unit": "mg"},
      {"measurement": "bioavailability in the mouse model", "setting": "[6]", "value": "measurable"}
    ]}
  ]
}
